Data set [1] addresses hCB2 (Homo sapiens, UniProt P34972). The data set can be described thus: In vitro binding assay using hCB2-CHO membranes, [3H]-CP-55,940 displacement (Protocol IV). Further details: expressed in transfected cells; host or cells: CHO (hCB2-CHO, generated in-house). To be noted: 1 h, read-out: % Displacement Protocol IV. How it is done: IV. Protocol for In Vitro Assay Using hCB2-CHO Membranes:
In this assay, [^3H]-CP-55,940 was used as the radioligand to bind human CB2 receptor expressed on the membranes from CHO cells (hCB2-CHO cell line was generated in-house) which can be displaced by unlabeled ligands having affinity to the CB2 receptor.
The assay was performed according to the modified method of Ross et al., 1999 (Br. J. Pharmacol. 128, 735-743). The reaction was set up in a total volume of 200 μl in PEI (0.2%) precoated Millipore GFB filter plates. 1 mM stocks of test compounds were prepared in DMSO and tested at a final concentration of 300 nM. The non-specific binding was determined by 0.5 μM CP-55, 940. The total reaction mixture contained Tris-BSA buffer (50 mM Tris, 5 mM MgCl2, 1 mM EDTA, pH 7.4 with 0.1% BSA), unlabelled CP-55, 940 (0.5 μM) or test samples, [^3H]-CP-55, 940 (0.75 nM) and 25-50 μg of human CB2 receptor preparation. The assay mixture (with or without the test compound) was incubated at 30° C. for 1 hour. The reaction was stopped by rapid filtration under vacuum and the radioactivity on the filters was measured by liquid scintillation counting.
The percent (%) displacement by a test ligand was calculated by comparing the specific bound values.

Where [2] appears, read: hCB2-CHO membranes, [3H]-CP-55,940 displacement.

Like-named read-outs stand apart in the source and are kept apart here.

Consider 24 molecules from patent publication US7923465B2, “Cannabinoid receptor ligands, pharmaceutical compositions containing them, and process for their preparation” (priority 2005, dated 2011).

Chain of hCB2 (P34972 whole entry): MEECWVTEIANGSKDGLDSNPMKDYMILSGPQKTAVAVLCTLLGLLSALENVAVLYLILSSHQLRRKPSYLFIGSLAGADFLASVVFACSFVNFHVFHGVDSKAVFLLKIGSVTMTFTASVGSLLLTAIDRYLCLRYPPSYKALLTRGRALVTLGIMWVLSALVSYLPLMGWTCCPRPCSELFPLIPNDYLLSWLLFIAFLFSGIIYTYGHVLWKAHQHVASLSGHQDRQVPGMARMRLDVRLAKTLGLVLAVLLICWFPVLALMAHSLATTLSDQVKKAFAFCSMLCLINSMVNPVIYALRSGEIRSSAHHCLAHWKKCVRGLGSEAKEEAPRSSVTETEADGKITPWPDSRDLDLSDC

For `O=C(NCc1ccncc1)c1nn(-c2ccc(Cl)cc2)c2c1C1CC3CC(C1)CC2C3` [Example 105, N(7)-(4-Pyridylmethyl)-5-(4-chlorophenyl)-5,6-diazatetracyclo[7.3.1.1^3,11.0^4,8]tetradeca-4(8),6-diene-7-carboxamide], the melting point lay in the range of 167 to 168 °C. For the same molecule, in data set [1] (setting [2]), the inhibition at 0.3 µM was 22.4%.
Consider `COC(=O)[C@H](NC(=O)c1nn(-c2ccc(F)cc2F)c2c1C1CCC2(C)C1(C)C)c1ccccc1` (stereo partly drawn) [Example 409, Methyl (2R)-2-[1-(2,4-difluorophenyl)-7,8,8-trimethyl-4,5,6,7-tetrahydro-1H-4,7-methano-indazole-3-carboxamido]-2-phenylethanoate], for which the melting point was in the range of 107 to 109 °C. Also, in data set [1] (setting [2]), the inhibition at 0.3 µM came out at 65.3%.
For the molecule `O=C(NC1C2CC3CC(C2)CC1C3)c1nn(-c2ccc(F)cc2F)c2c1C1CCC2C1` (centres unmarked) [Example 309, N5-(2-Adamantyl)-3-(2,4-difluorophenyl)-3,4-diazatricyclo[5.2.1.0^2,6]deca-2(6),4-diene-5-carboxamide], the melting point is 159 to 161 °C. In addition, the inhibition at 0.3 µM in data set [1] worked out at 98.5%.
The molecule `CC(C)(NC(=O)c1nn(-c2ccc(F)cc2F)c2c1C1CC3CC(C1)CC2C3)c1ccccc1` [Example 148, N(7)-(1-Methyl-1-phenylethyl)-5-(2,4-difluorophenyl)-5,6-diazatetracyclo[7.3.1.1^3,11.0^4,8]tetradeca-4(8),6-diene-7-carboxamide] gave a melting point of 150 to 152 °C. Also, in data set [1], the inhibition at 0.3 µM was 79.2%.
Consider `O=C(NCc1cccnc1)c1nn(-c2ccc(Cl)cc2)c2c1C1CC3CC(C1)CC2C3` [Example 104, N(7)-(3-Pyridylmethyl)-5-(4-chlorophenyl)-5,6-diazatetracyclo[7.3.1.1^3,11.0^4,8]tetradeca-4(8),6-diene-7-carboxamide], for which the melting point turned out to be 180 °C. In addition, in data set [1] (setting [2]), the inhibition at 0.3 µM was 20.2%.
`CCC(C)(C)NC(=O)c1nn(-c2ccc(F)cc2F)c2c1C1CCC2C1` (centres unmarked) [Example 313, N(3)-(tert-Pentyl)-1-(2,4-difluorophenyl)-4,5,6,7-tetrahydro-1H-4,7-methano-indazole-3-carboxamide] returned a melting point of 78 to 80 °C. The inhibition at 0.3 µM in data set [1] was determined as 98.2%.
The corresponding values for `CC1(NC(=O)c2nn(-c3ccc(F)cc3F)c3c2C2CCC3C2)C2CC3CC(C2)CC1C3` (centres unmarked) [Example 310, N5-(2-Methyl-2-adamantyl)-3-(2,4-difluorophenyl)-3,4-diazatricyclo[5.2.1.0^2,6]deca-2(6),4-diene-5-carboxamide] are 60 °C and 94.2%.
Consider `CC12CCC(c3c(C(=O)NC45CC6CC(CC(C6)C4)C5)nn(-c4ccc(F)cc4F)c31)C2(C)C` (centres unmarked) [Example 405, N(3)-(Adamantan-1-yl)-1-(2,4-difluorophenyl)-7,8,8-trimethyl-4,5,6,7-tetrahydro-1H-4,7-methano-indazole-3-carboxamide], for which the melting point was 162 to 165 °C. Further, the inhibition at 0.3 µM in data set [1] was determined as 87.9%.
`CC[C@H](NC(=O)c1nn(-c2ccc(F)cc2F)c2c1C1CC3CC(C1)CC2C3)c1ccccc1` [Example 152, N(7)-[(S)-1-Phenylpropyl]-5-(2,4-difluorophenyl)-5,6-diazatetracyclo[7.3.1.1^3,11.0^4,8]tetradeca-4(8),6-diene-7-carboxamide] had a melting point of 127 to 129 °C. For the same molecule, in data set [1], the inhibition at 0.3 µM amounted to 60.3%.
The molecule `CC12CCC(c3c(C(=O)NNc4ncccc4Cl)nn(-c4ccc(Cl)cc4Cl)c31)C2(C)C` (centres unmarked) [Example 404, N(3)-[(3-chloropyridin-2-yl)amino]-1-(2,4-Dichlorophenyl)-7,8,8-trimethyl-4,5,6,7-tetrahydro-1H-4,7-methano-indazole-3-carboxamide] returned a melting point of 142 to 145 °C. For the same molecule, the inhibition at 0.3 µM in data set [1] (setting [2]) turned out to be 23.8%.
`CC(C)(NC(=O)c1nn(-c2ccc(F)cc2F)c2c1C1CCC2c2ccccc21)c1ccccc1` (centres unmarked) [Example 509, N12-(1-Methyl-1-phenylethyl)-10-(2,4-difluorophenyl)-10,11-diazatetracyclo[6.5.2.0^2,7.0^9,13]pentadeca-2,4,6,9(13),11-pentaene-12-carboxamide] had a melting point of 175 to 178 °C. The inhibition at 0.3 µM in data set [1] is 67.2%.
As for `CC(C)(NC(=O)c1nn(-c2ccc(F)cc2)c2c1C1CC3CC(C1)CC2C3)c1ccccc1` [Example 157, N(7)-(1-Methyl-1-phenylethyl)-5-(4-fluorophenyl)-5,6-diazatetracyclo[7.3.1.1^3,11.0^4,8]tetradeca-4(8),6-diene-7-carboxamide], the melting point was 180 to 182 °C. Also, in data set [1], the inhibition at 0.3 µM was found to be 88.5%.
As for `O=C(NC1CC1)c1nn(-c2ccc(F)cc2F)c2c1C1CCC2C1` (centres unmarked) [Example 317, N(3)-Cyclopropyl-1-(2,4-difluorophenyl)-4,5,6,7-tetrahydro-1H-4,7-methano-indazole-3-carboxamide], the melting point is 59 to 61 °C. Also, in data set [1], the inhibition at 0.3 µM is 16.9%.
The corresponding values for `O=C(NCc1ccc(F)cc1F)c1nn(-c2ccc(Cl)cc2)c2c1C1CC3CC(C1)CC2C3` [Example 114, N(7)-(2,4-Difluorobenzyl)-5-(4-chlorophenyl)-5,6-diazatetracyclo[7.3.1.1^3,11.0^4,8]tetradeca-4(8),6-diene-7-carboxamide] are 185 °C and 31.7%.
Turning to `CC(C)(NC(=O)c1nn(-c2ccc(F)cc2)c2c1C1CCC2C1)c1ccccc1` (centres unmarked) [Example 282, N5-(1-Methyl-1-phenylethyl)-3-(4-fluorophenyl)-3,4-diazatricyclo[5.2.1.0^2,6]deca-2(6),4-diene-5-carboxamide], the melting point was in the range of 119 to 122 °C. Also, in data set [1], the inhibition at 0.3 µM was found to be 92.3%.
Molecule `O=C(NCc1ccc(Cl)cc1)c1nn(-c2ccc(F)cc2F)c2c1C1CCC2C1` (centres unmarked) [Example 298, N5-(4-Chlorobenzyl)-3-(2,4-difluorophenyl)-3,4-diazatricyclo[5.2.1.0^2,6]deca-2(6),4-diene-5-carboxamide] came in with a melting point of 121 to 125 °C. Moreover, in data set [1] (setting [2]), the inhibition at 0.3 µM was determined as 11.2%.
In turn, `O=C(NC12CC3CC(CC(O)(C3)C1)C2)c1nn(-c2ccc(F)cc2F)c2c1C1CC3CC(C1)CC2C3` [Example 156, N7-(3-Hydroxyadamantan-1-yl)-5-(2,4-difluorophenyl)-5,6-diazatetracyclo[7.3.1.1^3,11.0^4,8]tetradeca-4(8),6-diene-7-carboxamide] had a melting point of 240 to 243 °C. In data set [1], the inhibition at 0.3 µM came out at 89.3%.
`CCC(CC)(NC(=O)c1nn(-c2ccc(F)cc2F)c2c1C1CCC2C1)c1ccccc1` (centres unmarked) [Example 299, N5-(1-Ethyl-1-phenylpropyl)-3-(2,4-difluorophenyl)-3,4-diazatricyclo[5.2.1.0^2,6]deca-2(6),4-diene-5-carboxamide] displayed a melting point of 45 to 48 °C. The inhibition at 0.3 µM in data set [1] came out at 77.6%.
Consider `O=C(NCC1CCCO1)c1nn(-c2ccc(F)cc2F)c2c1C1CCC2C1` (centres unmarked) [Example 322, N(3)-(Tetrahydro-2-furanylmethyl)-1-(2,4-difluorophenyl)-4,5,6,7-tetrahydro-1H-4,7-methano-indazole-3-carboxamide], for which the melting point lay within 91 to 93 °C. In data set [1], the inhibition at 0.3 µM was found to be 43.4%.
The corresponding values for `CC[C@H](NC(=O)c1nn(-c2ccc(F)cc2F)c2c1C1CCC2C1)c1ccccc1` (stereo partly drawn) [Example 300, N5-[(1S)-1-Phenylpropyl]-3-(2,4-difluorophenyl)-3,4-diazatricyclo[5.2.1.0^2,6]deca-2(6),4-diene-5-carboxamide] are 100 to 103 °C and 90.1%.
Turning to `O=C(NCC1CCCCC1)c1nn(-c2ccc(F)cc2F)c2c1C1CCC2C1` (centres unmarked) [Example 291, N(3)-(Cyclohexylmethyl)-1-(2,4-difluorophenyl)-4,5,6,7-tetrahydro-1H-4,7-methano-indazole-3-carboxamide], the melting point is 94 to 97 °C.
`CN(NC(=O)c1nn(-c2ccc(Cl)cc2Cl)c2c1C1CCC2C1)c1ccccc1Cl` (centres unmarked) [Example 258, N(3)-[N-(2-Chlorophenyl)-N-methylamino]-1-(2,4-dichlorophenyl)-4,5,6,7-tetrahydro-1H-4,7-methano-indazole-3-carboxamide] gave a melting point of 121 to 124 °C.
`CN(NC(=O)c1nn(-c2ccc(Cl)cc2Cl)c2c1C1CCC2C1)c1ccc(Cl)cc1Cl` (centres unmarked) [Example 261, N(3)-[(2,4dichlorophenyl)-N-methylamino]-1-(2,4-dichlorophenyl)-4,5,6,7-tetrahydro-1H-4,7-methano-indazole-3-carboxamide]: the melting point lay within 135 to 138 °C.
On the same count and under the same terms, the value for `O=C(NCc1c(F)cccc1F)c1nn(-c2ccc(Cl)cc2)c2c1C1CC3CC(C1)CC2C3` [Example 115, N(7)-(2,6-Difluorobenzyl)-5-(4-chlorophenyl)-5,6-diazatetracyclo[7.3.1.1^3,11.0^4,8]tetradeca-4(8),6-diene-7-carboxamide] was 166 to 167 °C.
